According to publication PMC9232501, “Results of the phase I CCTG IND.231 trial of CX-5461 in patients with advanced solid tumors enriched for DNA-repair deficiencies” (Nature Communications, 2022):
Several values for one entry are separate records, joined by “and”; a condition that tells them apart may be missing. Identical values can stand only once.

Tested on: HCT116 cells
Experiment: HCT116 cytotoxicity (WST-1 assay) with and without UVA radiation
Type: cell-based, Human
Settings: for potentiation of UVA-induced cytotoxicity: UV 5 mJ/cm^2 and 125 mJ/cm^2; for WST-1 raw signal (Figure 5b) / WST-1 raw signal (Figure 5e): replicates
Experimental: Fig. 5 Comparison of G4 ligand photosensitization. […] Vertical axis, fractional survival, horizontal axis log10 drug concentration (M) (f) Representative images of CPD immunofluorescent staining under UV and drug treatment conditions for U2OS cells, quantified from biological duplicates in (g) (h) Scale bar = 100um. U2OS cells were treated with drug or vehicle control, then immediately irradiated with UVA 125 mJ/cm^2; and fixed 1 h later for immunofluorescence staining with CPD antibody. g Distribution of mean intensity of CPD level per cell (total n = in labels), with two biological repeats per condition. Vertical axis, mean CPD intensity per cell, horizontal axis, conditions (h) WT or KO XPA HAP1 cells assayed for cytotoxicity. Vertical axis, fractional survival (WST-1 assay). The horizontal axis, log10 drug concentration (M). Error bars = standard deviation of the mean. Three biological repeats per condition.
Human epidermal keratinocytes (HEKa) cells were sourced from Thermo Fisher Scientific, and were grown in EpiLife™ Medium with HKGS. HAP WT and XPA knockout cell lines (Horizon Discovery) were cultured in IMDM, 10% FCS. Human HCT116 cells, U2OS cells (ATCC) were grown in McCoy’s 5 A medium with 10% FBS and L-glutamine. All cell lines are mycoplasma free and have been authenticated by STR or SNP profiling. CX-5461 was provided by Senhwa Biosciences, Inc. PDS is from Sigma-Aldrich, BRACO-19 from Alfa Chemistry, PhENDC3 is from Sigma-Aldrich, γ -H2AX antibody from Abcam (1:1000 for IF) and CPD antibody (1:1500) from Cosmo Bio Ltd. (Catalog number: CAC-NM-DAD-001). The WST-1 assay was performed as previously described, γ H2AX foci staining was performed as previously described. Immunofluorescence staining of CPD was performed according to the protocol from the manufacturer (Cosmo Bio Ltd).

SMILES: CN1CCC[C@H]1CCNC(=O)c1cn2c3c(c(N4CCC(c5cnccn5)C4)c(F)cc3c1=O)Oc1cc3ccccc3cc1-2 (some centres unmarked) [CX-3543, quarfloxin]
- potentiation of UVA-induced cytotoxicity: Strong potentiation
- WST-1 raw signal (Figure 5b) (conc 1.00E-07, 5mJ/cm2 UV): 0.1176 and 0.1409 and 0.1492
- WST-1 raw signal (Figure 5b) (conc 1.00E-07, 125mJ/cm2 UV): 0.1326 and 0.1388 and 0.1325
- WST-1 raw signal (Figure 5b) (conc 1.00E-07, no UV): 0.3065 and 0.2985 and 0.3333
- WST-1 raw signal (Figure 5b) (conc 1.25E-08, 5mJ/cm2 UV): 0.2437 and 0.3248 and 0.2269
- WST-1 raw signal (Figure 5b) (conc 1.25E-08, 125mJ/cm2 UV): 0.1256 and 0.1309 and 0.1293
- WST-1 raw signal (Figure 5b) (conc 1.25E-08, no UV): 0.9466 and 1.0534 and 1.1298
- WST-1 raw signal (Figure 5b) (conc 1.56E-09, 5mJ/cm2 UV): 0.8994 and 0.9603 and 1.0971
- WST-1 raw signal (Figure 5b) (conc 1.56E-09, 125mJ/cm2 UV): 0.4201 and 0.4656 and 0.3751
- WST-1 raw signal (Figure 5b) (conc 1.56E-09, no UV): 1.1359 and 1.1204 and 1.1484
- WST-1 raw signal (Figure 5b) (conc 2.00E-07, 5mJ/cm2 UV): 0.1365 and 0.1282 and 0.1322
- WST-1 raw signal (Figure 5b) (conc 2.00E-07, 125mJ/cm2 UV): 0.1395 and 0.1322 and 0.1311
- WST-1 raw signal (Figure 5b) (conc 2.00E-07, no UV): 0.2081 and 0.2189 and 0.1938
- WST-1 raw signal (Figure 5b) (conc 2.50E-08, 5mJ/cm2 UV): 0.2095 and 0.1617 and 0.1535
- WST-1 raw signal (Figure 5b) (conc 2.50E-08, 125mJ/cm2 UV): 0.1433 and 0.1378 and 0.1358
- WST-1 raw signal (Figure 5b) (conc 2.50E-08, no UV): 0.8495 and 0.8987 and 0.779
- WST-1 raw signal (Figure 5b) (conc 3.13E-09, 5mJ/cm2 UV): 0.6485 and 0.7419 and 0.9883
- WST-1 raw signal (Figure 5b) (conc 3.13E-09, 125mJ/cm2 UV): 0.2369 and 0.2535 and 0.2676
- WST-1 raw signal (Figure 5b) (conc 3.13E-09, no UV): 1.0174 and 1.1372 and 1.1113
- WST-1 raw signal (Figure 5b) (conc 3.91E-10, 5mJ/cm2 UV): 1.0118 and 0.9721 and 1.5038
- WST-1 raw signal (Figure 5b) (conc 3.91E-10, 125mJ/cm2 UV): 0.8661 and 1.1363 and 0.97
- WST-1 raw signal (Figure 5b) (conc 3.91E-10, no UV): 1.0197 and 1.049 and 1.1065
- WST-1 raw signal (Figure 5b) (conc 5.00E-08, 5mJ/cm2 UV): 0.1533 and 0.1449 and 0.1376
- WST-1 raw signal (Figure 5b) (conc 5.00E-08, 125mJ/cm2 UV): 0.1545 and 0.1405 and 0.1347
- WST-1 raw signal (Figure 5b) (conc 5.00E-08, no UV): 0.5561 and 0.5613 and 0.5776
- WST-1 raw signal (Figure 5b) (conc 6.25E-09, 5mJ/cm2 UV): 0.5204 and 0.5393 and 0.4087
- WST-1 raw signal (Figure 5b) (conc 6.25E-09, 125mJ/cm2 UV): 0.1582 and 0.1598 and 0.1609
- WST-1 raw signal (Figure 5b) (conc 6.25E-09, no UV): 1.0374 and 1.1818 and 1.0522
- WST-1 raw signal (Figure 5b) (conc 7.81E-10, 5mJ/cm2 UV): 0.7587 and 1.1105 and 1.4362
- WST-1 raw signal (Figure 5b) (conc 7.81E-10, 125mJ/cm2 UV): 0.5029 and 0.7057 and 0.876
- WST-1 raw signal (Figure 5b) (conc 7.81E-10, no UV): 1.0762 and 1.1392 and 1.1311

SMILES: C[n+]1cc(NC(=O)c2ccc3ccc4ccc(C(=O)Nc5cc6ccccc6[n+](C)c5)nc4c3n2)cc2ccccc21 [PhenDC3]
- potentiation of UVA-induced cytotoxicity: not
- WST-1 raw signal (Figure 5e) (conc 1.47e-6, 5mJ/cm2 UV): 2.5247 and 1.9665 and 1.5331
- WST-1 raw signal (Figure 5e) (conc 1.47e-6, 125mJ/cm2 UV): 2.2675 and 1.9844 and 1.1454
- WST-1 raw signal (Figure 5e) (conc 1.47e-6, no UV): 1.3654 and 1.4935 and 1.7286
- WST-1 raw signal (Figure 5e) (conc 2.94e-6, 5mJ/cm2 UV): 2.08 and 2.2029 and 1.6368
- WST-1 raw signal (Figure 5e) (conc 2.94e-6, 125mJ/cm2 UV): 2.4823 and 2.523 and 1.7852
- WST-1 raw signal (Figure 5e) (conc 2.94e-6, no UV): 1.5405 and 2.117 and 2.002
- WST-1 raw signal (Figure 5e) (conc 5.88e-6, 5mJ/cm2 UV): 2.4037 and 2.2391 and 1.6885
- WST-1 raw signal (Figure 5e) (conc 5.88e-6, 125mJ/cm2 UV): 2.7023 and 2.4336 and 1.5283
- WST-1 raw signal (Figure 5e) (conc 5.88e-6, no UV): 1.7 and 1.9567 and 2.1724
- WST-1 raw signal (Figure 5e) (conc 1.18e-5, 5mJ/cm2 UV): 2.1812 and 1.9738 and 1.7421
- WST-1 raw signal (Figure 5e) (conc 1.18e-5, 125mJ/cm2 UV): 2.7227 and 2.5018 and 2.3037
- WST-1 raw signal (Figure 5e) (conc 1.18e-5, no UV): 1.7648 and 1.8678 and 1.9824
- WST-1 raw signal (Figure 5e) (conc 2.35e-5, 5mJ/cm2 UV): 0.565 and 0.559 and 0.471
- WST-1 raw signal (Figure 5e) (conc 2.35e-5, 125mJ/cm2 UV): 0.7287 and 0.5914 and 0.574
- WST-1 raw signal (Figure 5e) (conc 2.35e-5, no UV): 0.8347 and 0.741 and 0.6679
- WST-1 raw signal (Figure 5e) (conc 4.7e-5, 5mJ/cm2 UV): 0.2348 and 0.2033 and 0.2076
- WST-1 raw signal (Figure 5e) (conc 4.7e-5, 125mJ/cm2 UV): 0.1706 and 0.1911 and 0.2089
- WST-1 raw signal (Figure 5e) (conc 4.7e-5, no UV): 0.2669 and 0.2647 and 0.2402
- WST-1 raw signal (Figure 5e) (conc 9.4e-5, 5mJ/cm2 UV): 0.1394 and 0.1367 and 0.1266
- WST-1 raw signal (Figure 5e) (conc 9.4e-5, 125mJ/cm2 UV): 0.1442 and 0.1281 and 0.1307
- WST-1 raw signal (Figure 5e) (conc 9.4e-5, no UV): 0.1612 and 0.1272 and 0.1365
- WST-1 raw signal (Figure 5e) (conc 1.84E-07, 5mJ/cm2 UV): 1.7037 and 1.2125 and 1.5201
- WST-1 raw signal (Figure 5e) (conc 1.84E-07, 125mJ/cm2 UV): 1.8011 and 1.8559 and 1.4258
- WST-1 raw signal (Figure 5e) (conc 1.84E-07, no UV): 1.321 and 1.2585 and 1.2601
- WST-1 raw signal (Figure 5e) (conc 3.67E-07, 5mJ/cm2 UV): 1.8869 and 1.5993 and 1.6043
- WST-1 raw signal (Figure 5e) (conc 3.67E-07, 125mJ/cm2 UV): 2.4917 and 1.8093 and 1.3054
- WST-1 raw signal (Figure 5e) (conc 3.67E-07, no UV): 1.2806 and 1.3851 and 1.3161
- WST-1 raw signal (Figure 5e) (conc 7.34E-07, 5mJ/cm2 UV): 1.9796 and 1.8361 and 1.8217
- WST-1 raw signal (Figure 5e) (conc 7.34E-07, 125mJ/cm2 UV): 2.3975 and 1.9653 and 1.3571
- WST-1 raw signal (Figure 5e) (conc 7.34E-07, no UV): 1.5573 and 1.2554 and 1.5011
